Experimental data as given in patent EP4803080A1, “METHOD FOR TREATING LEUKEMIA” (Shenzhen TargetRx Co., Ltd., priority 2023, dated 2025).
Where “and” joins values, the source holds several entries; their conditions need not be identical. Equal entries are not always repeated. Where two headings read alike, the source gives them in different places.

Key:
[1] = Study of blood-brain ratio after single oral dose; assay type: in vivo; conditions: male SD rats
Description: A total of 15 male SD rats (3 per time point) were administered a single oral dose of Compound A via oral gavage at 50 mg/kg, with the vehicle being 0.5% sodium carboxymethyl cellulose (CMC-Na). The animals were not fasted. Whole blood, cerebrospinal fluid, and brain tissue were collected at 0.5, 2, 4, 8, and 24 hours post-dose. Whole blood samples (about 0.3 mL) were collected via puncture of the jugular venous sinus and transferred to dipotassium ethylenediaminetetraacetate (K2EDTA) anticoagulant tubes, mixed thoroughly, placed on wet ice, and centrifuged within 30 minutes for 5 minutes (6000 rpm, 4°C) to obtain plasma. Cerebrospinal fluid (about 0.10 mL) was collected via puncture of the cerebellomedullary cistern and placed in collection tubes. Brain tissue samples were rinsed with saline, dried with filter paper, blood vessels were removed, and the weight was weighed and recorded. Brain tissue was homogenized with 9 times its weight of homogenization buffer (30% MeOH, containing 0.2% FA/70% 10 mM PBS). All samples were stored in a freezer at -80°C or lower until LC-MS analysis. PK parameters were calculated using the non-compartmental model in WinNonlin and the compound concentrations in each matrix.

[2] = system: chronic phase (CP) chronic myeloid leukemia (CML); test: Phase I dose escalation and dose expansion clinical trial: efficacy in CML-CP subjects; assay type: in vivo, humans
From the text: This study is a single-arm, open-label, dose-escalation and dose-expansion Phase I clinical trial.
The dose-escalation phase of this trial consists of about 8 dose groups, with oral administration under fasting conditions. Subjects in all dose groups will receive a single dose on Day 1 (D1), followed by pharmacokinetic (PK) and tolerability observations. […] After entering the multiple-dose period, subjects in the first dose group will initially receive twice-daily (BID) dosing (if PK data from the single-dose period are available, the dosing frequency during the multiple-dose period may be adjusted based on the PK data). The dosing frequency for subjects in subsequent dose groups after entering the multiple-dose period will be determined based on available PK and tolerability data. Throughout the trial, dosing frequency for all subjects may be adjusted based on continuously updated safety and PK data.
A continuous reassessment method (CRM) based on the principle of the escalation with overdose control (EWOC) design will be used to recommend the next specific dose for each dose escalation, thereby completing dose escalation and determining the maximum tolerated dose (MTD). If both the investigator and sponsor believe that higher dose groups may offer better efficacy and manageable safety, the EWOC-based CRM method may be used to explore higher doses. All enrolled subjects will receive long-term treatment with the test drug and undergo evaluations for safety, tolerability, and preliminary efficacy.
After obtaining certain research data from the dose-escalation phase, the investigator may comprehensively consider safety, efficacy, and other information to decide whether to enroll additional subjects at the MTD and/or lower dose levels to determine the recommended Phase II dose (RP2D). Two to four suitable dosing regimens will be selected for expansion in the target population (including subjects enrolled at the target dose levels during the escalation phase).
A total of 8 dose groups were established: 10 mg bid, 20 mg bid, 40 mg bid, 80 mg bid, 40 mg qd, 80 mg qd, 160 mg qd, and 240 mg qd.
The dose expansion phase was conducted in the following 3 cohorts: • Cohort 1: Subjects with chronic phase (CP) chronic myeloid leukemia (CML) who had previously received at least ≥2 different TKIs and were T315I-negative. A total of 3 dose groups were established: 40 mg qd, 80 mg qd, and 240 mg qd; • Cohort 2: Subjects with chronic phase (CP) chronic myeloid leukemia (CML) who have previously received ≥1 TKI and were T315I-positive. A total of 2 dose groups were established: 40 mg qd and 240 mg qd; • Cohort 3: Subjects with accelerated phase (AP) chronic myeloid leukemia (CML) who have previously received ≥1 TKI, regardless of T315I positivity. A total of 1 dose group was established: 240 mg qd.

[3] = PO 50 mg/kg single dose, 0.5 hr, individual rat, 50 mg/kg
[4] = PO 50 mg/kg single dose, 2 hr, individual rat, 50 mg/kg
[5] = PO 50 mg/kg single dose, 4 hr, individual rat, 50 mg/kg
[6] = PO 50 mg/kg single dose, 8 hr, individual rat, 50 mg/kg
[7] = PO 50 mg/kg single dose, 24 hr, individual rat, 50 mg/kg
[8] = CML-CP subjects previously treated with ponatinib, olverembatinib, asciminib, and/or HS-10382, as of June 2, 2024
[9] = CML-CP subjects, all doses, 58 evaluable, as of August 24, 2023
[10] = CML-CP subjects, all doses, as of August 24, 2023
[11] = CML-CP subjects, as of June 2, 2024
[12] = CML-CP, 10 mg BID, 2 evaluable subjects, as of August 24, 2023
[13] = CML-CP, 20 mg BID, 3 evaluable subjects, as of August 24, 2023
[14] = CML-CP, 40 mg BID, 1 evaluable subject, as of August 24, 2023
[15] = CML-CP, 40 mg QD, 15 evaluable subjects, as of August 24, 2023
[16] = CML-CP, 40 mg/day Total, 18 evaluable subjects, as of August 24, 2023
[17] = CML-CP, 80 mg BID, 3 evaluable subjects, as of August 24, 2023
[18] = CML-CP, 80 mg QD, 2 evaluable subjects, as of August 24, 2023
[19] = CML-CP, 80 mg/day Total, 3 evaluable subjects, as of August 24, 2023
[20] = CML-CP, 160 mg QD, 1 evaluable subject, as of August 24, 2023
[21] = CML-CP, 160 mg/day Total, 4 evaluable subjects, as of August 24, 2023
[22] = CML-CP, 240 mg QD, 31 evaluable subjects, as of August 24, 2023
[23] = CML-CP, Total, all dose groups, 58 evaluable subjects, as of August 24, 2023

O=C(Nc1ccc(OC(F)(F)Cl)cc1)c1cnc(N2CC[C@@H](F)C2)c(-c2cnccn2)c1 [Compound A, (R)-N-(4-(chlorodifluoromethoxy)phenyl)-6-(3-fluoropyrrolidin-1-yl)-5-(pyrazin-2-yl)nicotinamide]
Brain Concentration (ng/g) Concentration [1, 3]: 302 ng/g and 381 ng/g
Brain/Blood Ratio Individual Value [1, 3]: 0.376 and 0.578
Brain Concentration (ng/g) Concentration [1, 4]: 1360 ng/g and 1070 ng/g
Brain/Blood Ratio Individual Value [1, 4]: 0.410 and 0.502
Brain Concentration (ng/g) Concentration [1, 5]: 1190 ng/g and 1310 ng/g
Brain/Blood Ratio Individual Value [1, 5]: 0.478 and 0.466
Brain Concentration (ng/g) Concentration [1, 6]: 452 ng/g and 1700 ng/g and 994 ng/g
Brain/Blood Ratio Individual Value [1, 6]: 0.447 and 0.462
Brain Concentration (ng/g) Concentration [1, 7]: 40.4 ng/g and 10.2 ng/g
Brain/Blood Ratio Individual Value [1, 7]: 0.488 and 0.990
concentration at 0.5 h ([1]; male, SD, rat, brain, po, 50 mg/kg, PO 50 mg/kg single dose, 0.5 hr, individual rat, read-out: Brain Concentration (ng/g) Concentration): 415 ng/g
concentration at 0.5 h ([1]; male, SD, rat, brain, po, 50 mg/kg, PO 50 mg/kg single dose, 0.5 hr, mean of 3 rats, read-out: Brain Concentration (ng/g) Mean): 366 ng/g
concentration at 2 h ([1]; male, SD, rat, brain, po, 50 mg/kg, PO 50 mg/kg single dose, 2 hr, individual rat): 961 ng/g
concentration at 4 h ([1]; male, SD, rat, brain, po, 50 mg/kg, PO 50 mg/kg single dose, 4 hr, individual rat): 880 ng/g
concentration at 24 h ([1]; male, SD, rat, brain, po, 50 mg/kg, PO 50 mg/kg single dose, 24 hr, mean (one rat NA)): 16.9 ng/g
Kp at 0.5 h ([1]; male, SD, rat, brain/plasma, po, 50 mg/kg, PO 50 mg/kg single dose, 0.5 hr, individual rat): 0.624
Kp at 2 h ([1]; male, SD, rat, brain/plasma, po, 50 mg/kg, PO 50 mg/kg single dose, 2 hr, individual rat): 0.439
Kp at 4 h ([1]; male, SD, rat, brain/plasma, po, 50 mg/kg, PO 50 mg/kg single dose, 4 hr, individual rat): 0.374
Kp at 8 h ([1]; male, SD, rat, brain/plasma, po, 50 mg/kg, PO 50 mg/kg single dose, 8 hr, individual rat): 0.511
Kp ([1]; male, SD, rat, brain/plasma, po, 50 mg/kg, single oral dose 50 mg/kg, 0.5 to 24 hours, read-out: brain-to-plasma concentration ratio): 0.44 to 0.74
Cmax ([1]; rat, brain, single oral dose 50 mg/kg): 1130 ng/g
AUC0-last in the brain ([1]; single oral dose 50 mg/kg): 16346 ng·h/g
18-month cumulative incidence of CCyR [2, 8]: 17%
18-month cumulative incidence of MCyR [2, 8]: 32%
CHR ([2]; CML-CP subjects, all doses, 35 evaluable, as of August 24, 2023): 91.4%
CCyR [2, 9]: 34.5%
MCyR [2, 9]: 39.7%
MMR ([2]; CML-CP subjects, all doses, 62 evaluable, as of August 24, 2023): 16.1%
median time to CCyR [2, 10]: 2.81 (2.76, 3.30) months
median time to MCyR [2, 10]: 2.83 (2.76, 3.68) months
median time to MMR [2, 10]: 2.81 (2.76, 5.49) months
CHR within 3 treatment cycles ([2]; CML-CP subjects, 49 evaluable, as of June 2, 2024): 82%
18-month cumulative incidence rate for CCyR [2, 11]: 40%
18-month cumulative incidence rate for MCyR [2, 11]: 52%
18-month cumulative incidence rate for MMR [2, 11]: 26%
CHR ([2]; CML-CP, 10 mg BID, 0 evaluable subjects, as of August 24, 2023): 0 n (%)
CCyR [2, 12]: 1 (50.0) n (%)
MCyR [2, 12]: 2 (100) n (%)
MMR [2, 12]: 1 (50.0) n (%)
CHR ([2]; CML-CP, 20 mg BID, 2 evaluable subjects, as of August 24, 2023): 2 (100) n (%)
CCyR [2, 13]: 2 (66.7) n (%)
MCyR [2, 13]: 2 (66.7) n (%)
MMR [2, 13]: 0 n (%)
CCyR [2, 14]: 0 n (%)
CHR [2, 14]: 1 (100) n (%)
MCyR [2, 14]: 0 n (%)
MMR [2, 14]: 0 n (%)
CHR ([2]; CML-CP, 40 mg QD, 7 evaluable subjects, as of August 24, 2023): 6 (85.7) n (%)
CCyR [2, 15]: 5 (33.3) n (%)
MCyR [2, 15]: 5 (33.3) n (%)
MMR ([2]; CML-CP, 40 mg QD, 17 evaluable subjects, as of August 24, 2023): 3 (17.6) n (%)
CHR ([2]; CML-CP, 40 mg/day Total, 9 evaluable subjects, as of August 24, 2023): 8 (88.9) n (%)
CCyR [2, 16]: 7 (38.9) n (%)
MCyR [2, 16]: 7 (38.9) n (%)
MMR ([2]; CML-CP, 40 mg/day Total, 20 evaluable subjects, as of August 24, 2023): 3 (15.0) n (%)
CHR ([2]; CML-CP, 80 mg BID, 2 evaluable subjects, as of August 24, 2023): 2 (100) n (%)
CCyR [2, 17]: 1 (33.3) n (%)
MCyR [2, 17]: 1 (33.3) n (%)
MMR [2, 17]: 1 (33.3) n (%)
CCyR [2, 18]: 1 (50.0) n (%)
MCyR [2, 18]: 1 (50.0) n (%)
MMR [2, 18]: 0 n (%)
CHR ([2]; CML-CP, 80 mg QD, 3 evaluable subjects, as of August 24, 2023): 3 (100) n (%)
CCyR [2, 19]: 1 (33.3) n (%)
MCyR [2, 19]: 1 (33.3) n (%)
MMR [2, 19]: 0 n (%)
CHR ([2]; CML-CP, 80 mg/day Total, 4 evaluable subjects, as of August 24, 2023): 4 (100) n (%)
CCyR [2, 20]: 1 (100) n (%)
CHR [2, 20]: 1 (100) n (%)
MCyR [2, 20]: 1 (100) n (%)
MMR [2, 20]: 1 (100) n (%)
CHR ([2]; CML-CP, 160 mg/day Total, 3 evaluable subjects, as of August 24, 2023): 3 (100) n (%)
CCyR [2, 21]: 2 (50.0) n (%)
MCyR [2, 21]: 2 (50.0) n (%)
MMR [2, 21]: 2 (50.0) n (%)
CHR ([2]; CML-CP, 240 mg QD, 19 evaluable subjects, as of August 24, 2023): 17 (89.5) n (%)
CCyR [2, 22]: 9 (29.0) n (%)
MCyR [2, 22]: 11 (35.5) n (%)
MMR ([2]; CML-CP, 240 mg QD, 33 evaluable subjects, as of August 24, 2023): 4 (12.1) n (%)
CHR ([2]; CML-CP, Total, all dose groups, 35 evaluable subjects, as of August 24, 2023): 32 (91.4) n (%)
CCyR [2, 23]: 20 (34.5) n (%)
MCyR [2, 23]: 23 (39.7) n (%)
MMR ([2]; CML-CP, Total, all dose groups, 62 evaluable subjects, as of August 24, 2023): 10 (16.1) n (%)
